Patent publication US20250092065A1, “2-(INDAZOL-5-YL)-6-(PIPERIDIN-4-YL)-1,7-NAPHTHYRIDINE DERIVATIVES AND RELATED COMPOUNDS AS MODULATORS FOR SPLICING NUCLEIC ACIDS AND FOR THE TREATMENT OF PROLIFERATIVE DISEASES” (REMIX THERAPEUTICS INC., priority 2022, published 2025)
Like-named read-outs stand apart in the source and are kept apart here.

Key:
MYB mRNA = experiment: RT-qPCR splicing assay, MYB mRNA canonical (CJ) and alternative (AJ) junction; assay type: cell-based, human; details: Homo sapiens; for AC50: MYB alternative junction mRNA, read-out: MYB AJ (increase in AJ mRNA, AC50)
Outline: (§1)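 Splice switching quantified in compound-treated A673/K562 cells after 24 h exposure (top dose 10 uM, 3-fold steps, ≤0.25% DMSO), using CJ and AJ qPCR assays run at least in duplicate. RQ derived by 2^(−ΔΔCt), then percentage response.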

Target C = experiment: RT-qPCR canonical junction panel assay, Target C mRNA; assay type: cell-based; details: Table 4, read-out: Target C IC50 (decrease in CJ mRNA levels)
Outline: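 A673 or K562 cells treated with compound; CJ mRNA quantified by junction-spanning RT-qPCR probe after cDNA synthesis, normalised to GAPDH, GUSB or PPIA and DMSO (2^−ΔΔCt), scaled to set ΔCt assay window; IC50 from 4-parameter fit of CJ decrease.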

HTT mRNA = experiment: RT-qPCR splicing assay, HTT mRNA canonical (CJ) and alternative (AJ) junction; assay type: cell-based, human; details: Homo sapiens; for AC50: HTT alternative junction mRNA, read-out: HTT AJ (increase in AJ mRNA, AC50)
Outline: as §1

[1] = MYB canonical junction mRNA, RT-qPCR, read-out: MYB CJ (decrease in CJ mRNA levels, IC50)
[2] = canonical junction qPCR panel, Table 4, read-out: MYB IC50 (decrease in CJ mRNA levels)
[3] = HTT canonical junction mRNA, RT-qPCR, read-out: HTT CJ (decrease in CJ mRNA levels, IC50)
[4] = canonical junction qPCR panel, Table 4, read-out: HTT IC50 (decrease in CJ mRNA levels)

Compound	IC50 (MYB mRNA; [1]) [nM]	IC50 (MYB mRNA; [2]) [nM]	IC50 (Target C) [nM]	IC50 (HTT mRNA; [3]) [nM]	IC50 (HTT mRNA; [4]) [nM]	AC50 (MYB mRNA; RT-qPCR) [nM]	AC50 (HTT mRNA; RT-qPCR) [nM]
Cn1cc2cc(-c3ccc4nc([C@@H]5CCNC6(CC6)C5)ccc4n3)c(O)cc2n1 (single isomer, unassigned) [Compound 495]	< 100	< 100	100 to 1000	< 100	< 100	< 100	< 100
Cn1cc2cc(-c3ccc4nc([C@H]5CCNC6(CC6)C5)ccc4n3)c(O)cc2n1 (single isomer, unassigned) [Compound 496]	100 to 1000	100 to 1000	100 to 1000	100 to 1000	100 to 1000	< 100	< 100
Cc1nc2cc(O)c(-c3ccc4nc([C@H]5CCNC6(CC6)C5)ccc4n3)cc2o1 (single isomer, unassigned) [Compound 497]	< 100	< 100	< 100	< 100	< 100	< 100	< 100
Cc1nc2cc(O)c(-c3ccc4nc([C@@H]5CCNC6(CC6)C5)ccc4n3)cc2o1 (single isomer, unassigned) [Compound 498]	100 to 1000	100 to 1000	100 to 1000	< 100	< 100	< 100	< 100
CN[C@@H]1CCN(c2ccc3nc(-c4cn5cc(C)nc5c(C)c4O)ncc3n2)C1 (single isomer, unassigned) [Compound 504]	100 to 1000	100 to 1000	100 to 1000	100 to 1000	100 to 1000	100 to 1000	100 to 1000
Cn1cc2cc(-c3ncc4nc(C5CCNCC5)ccc4n3)c(O)c(F)c2n1 [Compound 155]	< 100	< 100	100 to 1000	< 100	< 100	< 100	< 100
Cc1nc2cc(O)c(-c3ccc4nc(N5CCNC(C(C)(C)C)C5)ccc4n3)cc2o1 (stereo not shown) [Compound 492]	1000 to 10000	1000 to 10000	1000 to 10000	100 to 1000	100 to 1000	100 to 1000	100 to 1000
Cc1nc2cc(O)c(-c3ccc4nc(N5CC[C@@H](N(C)C(C)(C)C)C5)ccc4n3)cc2o1 [Compound 493]	< 100	< 100	< 100	< 100	< 100	< 100	< 100
Cc1c(O)c(-c2nc(C(=O)N(C)C)c3cc(N4CCNCC4)ccc3n2)cc2cn(C)nc12 [Compound 502, 2-(6-hydroxy-2,7-dimethylindazol-5-yl)-N,N-dimethyl-6-(piperazin-1-yl)quinazoline-4-carboxamide]	1000 to 10000	1000 to 10000	1000 to 10000	1000 to 10000	1000 to 10000	1000 to 10000	1000 to 10000
CCNC(=O)c1nc(-c2cc3cn(C)nc3c(C)c2O)nc2ccc(N3CCNCC3)cc12 [Compound 503, N-ethyl-2-(6-hydroxy-2,7-dimethylindazol-5-yl)-6-(piperazin-1-yl)quinazoline-4-carboxamide]	< 100	< 100	100 to 1000	< 100	< 100	< 100	< 100

The next lines start with results.

IC50 (MYB mRNA; [1]) [nM]	IC50 (MYB mRNA; [2]) [nM]	IC50 (Target C) [nM]	IC50 (HTT mRNA; [3]) [nM]	IC50 (HTT mRNA; [4]) [nM]	Compound	AC50 (MYB mRNA; RT-qPCR) [nM]	AC50 (HTT mRNA; RT-qPCR) [nM]
< 100	< 100	1000 to 10000	100 to 1000	100 to 1000	CNC(=O)c1nc(-c2cc3cn(C)nc3c(C)c2O)nc2ccc(N3CCN[C@@H](C)C3)cc12 (single isomer, unassigned) [Compound 512]	< 100	100 to 1000
< 100	< 100	100 to 1000	< 100	< 100	CN[C@@H]1CCN(c2ccc3nc(-c4cc5cn(C)nc5c(C)c4O)ncc3c2)C1 (single isomer, unassigned) [Compound 521]	< 100	100 to 1000
< 100	< 100	100 to 1000	< 100	< 100	CNC(=O)c1nc(-c2cc3cn(C)nc3c(C)c2O)nc2ccc(N3C[C@@H](C)N[C@H](C)C3)cc12 (single isomer, unassigned) [Compound 653]	< 100	100 to 1000
100 to 1000	100 to 1000	100 to 1000	100 to 1000	100 to 1000	Cc1c(O)c(-c2ncc3cc(N4C[C@@H](C)N[C@H](C)C4)ccc3n2)cc2cn(C)nc12 (single isomer, unassigned) [Compound 661]	100 to 1000	1000 to 10000
< 100	< 100	1000 to 10000	100 to 1000	100 to 1000	CNC(=O)c1nc(-c2cc3cn(C)nc3c(F)c2O)nc2ccc(N3C[C@@H](C)N[C@H](C)C3)cc12 (single isomer, unassigned) [Compound 668]	< 100	1000 to 10000
< 100	< 100	1000 to 10000	100 to 1000	100 to 1000	CNC(=O)c1nc(-c2cc3cn(C)nc3c(F)c2O)nc2ccc(N3C[C@H](C)N[C@@H](C)C3)cc12 (single isomer, unassigned) [Compound 669]	< 100	100 to 1000
< 100	< 100	> 10000	100 to 1000	100 to 1000	CNC(=O)c1nc(-c2cc3cn(C)nc3cc2O)nc2ccc(N3C[C@H](C)N[C@@H](C)C3)cc12 (single isomer, unassigned) [Compound 676]	< 100	100 to 1000
< 100	< 100	1000 to 10000	100 to 1000	100 to 1000	CNC(=O)c1nc(-c2cc3cn(C)nc3cc2O)nc2ccc(N3C[C@@H](C)N[C@H](C)C3)cc12 (single isomer, unassigned) [Compound 677]	< 100	1000 to 10000
< 100	< 100	100 to 1000	100 to 1000	100 to 1000	Cc1cn2cc(-c3ccc4cc(N5C[C@H](C)N[C@@H](C)C5)cc(F)c4n3)cc(F)c2n1 (single isomer, unassigned) [Compound 705, 2,2,2-trifluoroacetate]	100 to 1000	100 to 1000
< 100	< 100	100 to 1000	100 to 1000	100 to 1000	CNC(=O)c1nc(-c2cc(F)c3nc(C)cn3c2)nc2ccc(N3CCNCC3)cc12 [Compound 505, 2-{8-fluoro-2-methylimidazo[1,2-a]pyridin-6-yl}-N-methyl-6-(piperazin-1-yl) quinazoline-4-carboxamide]	< 100	100 to 1000
< 100	< 100	100 to 1000	< 100	< 100	CNC(=O)c1nc(-c2cc3cn(C)nc3c(F)c2O)nc2ccc(N3CCNCC3)cc12 [Compound 506, 2-(7-fluoro-6-hydroxy-2-methylindazol-5-yl)-N-methyl-6-(piperazin-1-yl)quinazoline-4-carboxamide]	< 100	100 to 1000
< 100	< 100	1000 to 10000	100 to 1000	100 to 1000	CNC(=O)c1nc(-c2cc3cn(C)nc3c(C)c2O)nc2ccc(N3CCC(N(C)C)CC3)cc12 [Compound 507, 6-[4-(dimethylamino)piperidin-1-yl]-2-(6-hydroxy-2,7-dimethylindazol-5-yl)-N-methylquinazoline-4-carboxamide]	< 100	1000 to 10000
1000 to 10000	1000 to 10000	> 10000	> 10000	> 10000	CNc1nc(-c2cc3cn(C)nc3c(C)c2O)nc2ccc(N3CCNCC3)cc12 [Compound 508, 2,7-dimethyl-5-[4-(methylamino)-6-(piperazin-1-yl)quinazolin-2-yl]indazol-6-ol]	1000 to 10000	> 10000
> 10000	> 10000	> 10000	> 10000	> 10000	Cc1c(O)c(-c2nc(N(C)C)c3cc(N4CCNCC4)ccc3n2)cc2cn(C)nc12 [Compound 509, 5-[4-(dimethylamino)-6-(piperazin-1-yl)quinazolin-2-yl]-2,7-dimethylindazol-6-ol]	> 10000	> 10000
< 100	< 100	100 to 1000	< 100	< 100	CNC(=O)c1nc(-c2cc3cn(C)nc3c(C)c2O)nc2ccc(N3CCC(NC)C3)cc12 (stereo not shown) [Compound 510, 2-(6-hydroxy-2,7-dimethylindazol-5-yl)-N-methyl-6-[3-(methylamino)pyrrolidin-1-yl]quinazoline-4-carboxamide]	< 100	100 to 1000
